In publication PMC3929664, “A Panel of Diverse Assays to Interrogate the Interaction between Glucokinase and Glucokinase Regulatory Protein, Two Vital Proteins in Human Disease” (PLoS ONE, 2014):

How the values were obtained:
[1] = system: GCK (recombinant GST-GCK); details: cited from earlier work
[2] = molecular target: T1, recombinant human GST-GCK (Homo sapiens, UniProt P35557); assay type: biochemical; details: 4 nM GCK, 37.5 mM glucose, fit accounting for substrate inhibition, mean ± SD; read-out: ATP Km
T1 construct: GST (glutathione-S-transferase); made in house
T1 sequence (P35557 1-465): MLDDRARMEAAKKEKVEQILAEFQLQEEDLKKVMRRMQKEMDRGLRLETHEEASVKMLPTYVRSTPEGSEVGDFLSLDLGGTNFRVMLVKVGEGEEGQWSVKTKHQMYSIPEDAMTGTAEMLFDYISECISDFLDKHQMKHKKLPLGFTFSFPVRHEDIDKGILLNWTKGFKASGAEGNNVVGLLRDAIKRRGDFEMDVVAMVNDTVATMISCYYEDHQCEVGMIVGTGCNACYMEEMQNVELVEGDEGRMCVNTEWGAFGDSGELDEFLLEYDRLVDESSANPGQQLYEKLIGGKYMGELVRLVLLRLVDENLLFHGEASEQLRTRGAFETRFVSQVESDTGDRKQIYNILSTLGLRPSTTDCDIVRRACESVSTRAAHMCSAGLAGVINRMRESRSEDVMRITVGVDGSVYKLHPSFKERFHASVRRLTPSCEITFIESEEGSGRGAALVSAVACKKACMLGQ
Method: The ATP Km for GCK was determined by fluorescent monitoring of NADH oxidation using a dual-coupling system whereby generation of ADP by GCK was coupled to oxidation of NADH via PK and LDH (Figure S2A) [37]. The final reaction contained 4 nM GCK, glucose in five-fold excess of the calculated glucose S0.5 (37.5 mM), and ATP concentrations ranging from 0 to 2 mM. The reaction was initiated by addition of ATP and read immediately, then every 10 seconds for 5 minutes. Each ATP concentration was tested in quadruplicate. The initial slopes (v0) for each concentration were determined by linear regression (GraphPad Prism, GraphPad Software, San Diego, CA, USA), and then v0 was plotted against ATP concentration (Figure S2B).
(A) Reaction scheme of PK/LDH dual-coupled assay. The reaction included 4 nM GCK. (B) Reaction progress over the first 60 seconds was monitored by the loss of NADH fluorescence at 450 nm using a ViewLux Microplate Imager and results analyzed by linear regression. Resultant slopes from regression were plotted and the curve fit using nonlinear regression accounting for substrate inhibition in GraphPad Prism to give a best-fit Km value.

[3] = molecular target: T1, recombinant human GST-GCK; assay: GCK glucose S0.5 and Hill coefficient by luminescent ADP-Glo assay; assay type: biochemical; details: 4 nM GCK, 4 mM ATP, 45 minutes
Method: The glucose S0.5 and Hill coefficient for GCK were calculated using a luminescent assay measuring the production of ADP by GCK (ADP-Glo™ Kinase Assay, Promega Corporation, Madison, WI, USA; see below). Luminescence was measured at 18 glucose concentrations from 0.1 to 100 mM (two separate experiments; each n = 8 for each concentration).
The assay included 4 nM GCK and 4 mM ATP and was terminated after 45 minutes. Each data point is mean ± SEM (n = 8). Curves were fit using nonlinear regression with the allosteric sigmoidal option in GraphPad Prism to determine the S0.5 and Hill coefficient.

[4] = system: cryopreserved human hepatocytes; assay: GCK translocation in cryopreserved human hepatocytes (GKRP-positive cells); assay type: cell-based
Method: Plateable cryopreserved human hepatocytes (female, lot number TRZ; male, lot number FOS) were plated at 50,000 cells/well in Biocoat black/clear collagen-coated 96-well plates in InVitroGRO™ CP medium supplemented with Torpedo™ Antibiotic Mix. After hepatocyte attachment, media was changed to InVitroGRO™ HI medium with Torpedo™ Antibiotic Mix.
Hepatocytes were fixed in 4% PFA for 15 minutes. PFA was then removed and cells were washed twice in Dulbecco’s phosphate-buffered saline (DPBS) containing 0.2% Triton-X and then permeabilized for 10 minutes with DPBS/0.2% Triton-X. Cells were then treated for 30 minutes with Odyssey protein blocking buffer (Li-cor Biosciences, Lincoln, NE, USA) before addition of a mouse monoclonal IgG2a GKRP antibody [GCKR (A-8); Santa Cruz Biotechnology, Inc., Santa Cruz, CA, USA]. The antibody (200 µg/ml) was diluted (1∶50) in protein blocking buffer and incubated with cells for 120 minutes. Cells were then washed (4×5 minutes) in PBS/0.1% Tween-20 before addition of protein blocking buffer containing Alexa Fluor® 647 Goat Anti-Mouse IgG (H+L) (Invitrogen; 1∶500 dilution) and rabbit polyclonal GCK antibody [1∶30 dilution; GCK (H-88) 200 µg/ml; Santa Cruz Biotechnology]. After 60 minutes, cells were washed with PBS/0.1% Tween-20 (4×5 minutes). Following a 60-minute incubation with blocking buffer and goat anti-rabbit IgG-HRP (1∶500 dilution; sc-2004; Santa Cruz Biotechnology), cells were washed with PBS/0.1% Tween-20 (4×5 minutes). Fluorescent detection of the HRP-conjugated secondary antibody was enabled using a 10-minute incubation with fluorescein-conjugated tyramide from the Tyramide Signal Amplification kit (PerkinElmer). The tyramide solution was prepared in DMSO (Sigma-Aldrich) according to the manufacturer’s instructions. Cells were then washed (3×5 minutes) with PBS/0.1% Tween-20 before a final five-minute wash with PBS/0.1% Tween-20 containing 0.02 mg/ml Hoechst 33342 Trihydrochloride Trihydrate (Hoechst; Invitrogen) for visualization of nuclei. After Hoechst staining, all cells were then stored in 100 µl DPBS at 4°C. […]

[5] = molecular target: T2, GCK-GKRP interaction (recombinant human GST-GCK and FLAG-GKRP) (Homo sapiens, UniProt P35557+Q14397); assay: HTRF assay of the GCK-GKRP protein-protein interaction; assay type: binding; details: 5 nM GCK, 5 nM GKRP, 2 µM S6P, mean ± SD; read-out: IC50 (inhibition of GCK-GKRP interaction, HTRF signal)
T2 construct: made in house
T2 sequence (P35557 1-465): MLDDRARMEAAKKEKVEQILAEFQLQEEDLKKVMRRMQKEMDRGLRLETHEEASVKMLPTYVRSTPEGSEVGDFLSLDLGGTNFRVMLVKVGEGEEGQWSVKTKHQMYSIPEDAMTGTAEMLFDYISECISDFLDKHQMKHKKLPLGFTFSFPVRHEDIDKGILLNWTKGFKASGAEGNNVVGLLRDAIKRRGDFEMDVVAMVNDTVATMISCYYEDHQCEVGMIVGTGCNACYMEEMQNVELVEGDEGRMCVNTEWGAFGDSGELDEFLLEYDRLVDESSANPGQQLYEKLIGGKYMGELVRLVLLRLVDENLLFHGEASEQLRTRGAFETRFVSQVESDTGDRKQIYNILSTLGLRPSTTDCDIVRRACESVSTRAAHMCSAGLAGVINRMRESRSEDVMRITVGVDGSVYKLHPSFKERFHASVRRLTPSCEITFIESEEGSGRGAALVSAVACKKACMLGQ
T2 sequence (Q14397 1-625): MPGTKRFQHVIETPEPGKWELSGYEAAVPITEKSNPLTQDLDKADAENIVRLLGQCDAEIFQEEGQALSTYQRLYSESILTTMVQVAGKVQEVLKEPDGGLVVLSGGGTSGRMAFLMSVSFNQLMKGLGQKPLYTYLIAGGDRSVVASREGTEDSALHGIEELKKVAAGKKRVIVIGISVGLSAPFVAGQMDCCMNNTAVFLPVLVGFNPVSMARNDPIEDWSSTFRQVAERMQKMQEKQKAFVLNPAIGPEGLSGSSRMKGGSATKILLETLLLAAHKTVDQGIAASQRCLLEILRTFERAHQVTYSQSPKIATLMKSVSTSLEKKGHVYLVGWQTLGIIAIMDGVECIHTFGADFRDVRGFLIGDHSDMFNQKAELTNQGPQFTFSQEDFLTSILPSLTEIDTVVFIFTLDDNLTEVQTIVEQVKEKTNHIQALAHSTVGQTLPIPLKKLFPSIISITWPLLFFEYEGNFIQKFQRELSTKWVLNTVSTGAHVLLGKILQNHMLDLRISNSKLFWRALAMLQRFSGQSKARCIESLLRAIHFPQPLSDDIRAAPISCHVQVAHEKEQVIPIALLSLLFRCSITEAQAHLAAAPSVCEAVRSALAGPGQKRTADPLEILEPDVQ
Method: Homogeneous time-resolved fluorescence (HTRF) technology (Cisbio Bioassays, Bedford, MA, USA) was utilized for antibody-based FRET measurement of the GCK-GKRP protein-protein interaction. Recombinant human GST-GCK and FLAG-GKRP were mixed in an HTRF assay buffer containing 2 mM MgCl2, 25 mM KCl, 25 mM HEPES, 1 mM DTT, 0.1% Tween-20, and 0.025% BSA (all buffer components Sigma-Aldrich). The pH was adjusted to 7.1 by drop-wise addition of 10 N NaOH. […] For assays in 1536-well plate format, the two reaction mixes were dispensed using an Aurora Discovery BioRAPTR Flying Reagent Dispenser (BioRAPTR; Beckman Coulter, Inc., Brea, CA, USA) (3 µl/well for protein-containing buffer; 1 µl/well for detection antibodies) into white 1536-well solid-bottom medium binding plates (Greiner Bio-One, Monroe, NC, USA). […] For the LOPAC^1280 library screen, column 1 was all components with DMSO (maximum signal) and column 3 was no GKRP with DMSO (minimum signal). These two control columns were used for data normalization. The final HTS protocol is in Table S1, and the data have been deposited in PubChem (AID 743207).
S6P, F1P, and glucose were dissolved in water; GKAs were dissolved in DMSO.
The assay was validated using a range (0–150 nM) of GCK and GKRP concentrations at manufacturer-recommended detection antibody concentrations ( Figure 2A ). Fluorescence was measured immediately upon mixing, and every 30 minutes thereafter for a total of 240 minutes. The plate was covered and incubated at room temperature throughout the course of the experiment.
The assay was miniaturized to 1536-well plate format and, concurrently, specificity of detection was validated by using known modulators of the GCK-GKRP interaction.
The EC80 value represents a compromise between the desire for large enough signal enhancement and the need to maintain a binding level that is not too saturated so that it can be outcompeted by compounds of interest. Additionally, this approach enables detection of specific competitors of S6P, which would likely be acting on GKRP as desired, and not on GCK. […] Both glucose and GKAs interfere with the binding of GKRP to GCK and decrease GKRP inhibition, [44], [45], while F1P binds to GKRP and is competitive with respect to S6P [46].

[6] = system: cryopreserved pooled male Sprague-Dawley rat hepatocytes; assay: GCK translocation in cryopreserved rat hepatocytes (high-content imaging); assay type: cell-based; details: 2 hours
Method: Plateable cryopreserved pooled male Sprague-Dawley rat hepatocytes (lot number NPD) were thawed and plated (40,000 cells/well) in Biocoat black/clear collagen-coated 96-well plates (BD Biosciences, San Jose, CA, USA) in InVitroGRO™ CP Rat medium supplemented with Torpedo™ Antibiotic Mix (BioreclamationIVT). After hepatocyte attachment, media was changed to InVitroGRO™ HI Rat medium with Torpedo™ Antibiotic Mix.
Hepatocytes were fixed in 4% PFA for 15 minutes. PFA was then removed and cells were washed twice in Dulbecco’s phosphate-buffered saline (DPBS) containing 0.2% Triton-X and then permeabilized for 10 minutes with DPBS/0.2% Triton-X. Cells were then treated for 30 minutes with Odyssey protein blocking buffer (Li-cor Biosciences, Lincoln, NE, USA) before addition of a mouse monoclonal IgG2a GKRP antibody [GCKR (A-8); Santa Cruz Biotechnology, Inc., Santa Cruz, CA, USA]. The antibody (200 µg/ml) was diluted (1∶50) in protein blocking buffer and incubated with cells for 120 minutes. Cells were then washed (4×5 minutes) in PBS/0.1% Tween-20 before addition of protein blocking buffer containing Alexa Fluor® 647 Goat Anti-Mouse IgG (H+L) (Invitrogen; 1∶500 dilution) and rabbit polyclonal GCK antibody [1∶30 dilution; GCK (H-88) 200 µg/ml; Santa Cruz Biotechnology]. After 60 minutes, cells were washed with PBS/0.1% Tween-20 (4×5 minutes). […]

[7] = molecular target: T3, Recombinant glutathione-S-transferase (GST)-tagged human glucokinase (human, UniProt P35557 1-465); assay: AlphaScreen or HTRF; 1536-well plate, 4 µl final volume; 5 nM GST-GCK and 5 nM FLAG-GKRP in solution, without S6P or with S6P (2 µM for the inhibitor tests); anti-GST K and anti-FLAG XL 665 antibodies; HTRF assay buffer pH 7.1; room temperature, 60 minutes; signal ratio 665 nm/615 nm; details: both partners purified
T3 construct: glucokinase (GCK), human; also called GCK; GST-GCK; source: prepared as described previously [24], [35]
T3 sequence (looked up): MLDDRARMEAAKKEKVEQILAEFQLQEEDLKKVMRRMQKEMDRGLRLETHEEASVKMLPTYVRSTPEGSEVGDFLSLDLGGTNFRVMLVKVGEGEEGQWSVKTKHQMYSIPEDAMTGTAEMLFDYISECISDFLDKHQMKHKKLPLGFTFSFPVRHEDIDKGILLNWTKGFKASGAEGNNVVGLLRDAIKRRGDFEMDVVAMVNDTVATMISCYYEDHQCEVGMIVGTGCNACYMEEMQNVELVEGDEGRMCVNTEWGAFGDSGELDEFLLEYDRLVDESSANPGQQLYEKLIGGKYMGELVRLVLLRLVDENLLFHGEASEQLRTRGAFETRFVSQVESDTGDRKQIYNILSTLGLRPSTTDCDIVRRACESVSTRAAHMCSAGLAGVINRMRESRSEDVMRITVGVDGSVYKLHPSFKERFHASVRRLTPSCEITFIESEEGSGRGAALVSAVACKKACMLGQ

[8] = molecular target: T3, Recombinant glutathione-S-transferase …; assay: AlphaScreen or HTRF; 384-well plate; GST-GCK and FLAG-GKRP each titrated 0-150 nM in solution; anti-GST K (donor) and anti-FLAG XL 665 (acceptor) antibodies; 2 mM MgCl2, 25 mM KCl, 25 mM HEPES, 1 mM DTT, 0.1% Tween-20, 0.025% BSA, pH 7.1; room temperature, read at t = 60 minutes; signal ratio 665 nm/615 nm; details: both partners purified

Nc1ncnc2c1ncn2[C@@H]1O[C@H](COP(=O)(O)OP(=O)(O)OP(=O)(O)O)[C@@H](O)[C@H]1O [ATP]
Km ([1]; recombinant GST-GCK, read-out: ATP Km, previously described): 400 µM | Km [2]: 400 ± 110 µM

OC[C@H]1OC(O)[C@H](O)[C@@H](O)[C@@H]1O (some centres unmarked) [glucose]
Hill coefficient ([3]; mean ± SD): 1.53±0.1 | glucose S0.5 ([3]; mean ± SD across two experiments): 7.5 ± 0.8 mM | Hill coefficient, previously reported [1]: 1.6–1.7 | glucose S0.5, previously reported [1]: 7.5 to 10 mM | increase in number of translocation-positive cells ([4]; 25 mM glucose compared to 2.5 mM glucose, both lots (TRZ, FOS)): approximately 10% | IC50 [5]: 16 ± 1.4 mM | cells with translocated GCK ([6]; 2.5 mM glucose): 25% | cells with translocated GCK ([6]; 16.7 mM glucose): 84%

OC[C@@H](O)[C@@H](O)[C@H](O)[C@@H](O)CO [sorbitol]
GCK translocation response ([4]; lot FOS): no translocation was observed | GCK translocation response ([4]; lot TRZ, 2.5 mM glucose): approximately four-fold

B1: Recombinant FLAG-tagged human glucokinase regulatory protein (natural protein, UniProt Q14397 1-625, looked up)
chain: MPGTKRFQHVIETPEPGKWELSGYEAAVPITEKSNPLTQDLDKADAENIVRLLGQCDAEIFQEEGQALSTYQRLYSESILTTMVQVAGKVQEVLKEPDGGLVVLSGGGTSGRMAFLMSVSFNQLMKGLGQKPLYTYLIAGGDRSVVASREGTEDSALHGIEELKKVAAGKKRVIVIGISVGLSAPFVAGQMDCCMNNTAVFLPVLVGFNPVSMARNDPIEDWSSTFRQVAERMQKMQEKQKAFVLNPAIGPEGLSGSSRMKGGSATKILLETLLLAAHKTVDQGIAASQRCLLEILRTFERAHQVTYSQSPKIATLMKSVSTSLEKKGHVYLVGWQTLGIIAIMDGVECIHTFGADFRDVRGFLIGDHSDMFNQKAELTNQGPQFTFSQEDFLTSILPSLTEIDTVVFIFTLDDNLTEVQTIVEQVKEKTNHIQALAHSTVGQTLPIPLKKLFPSIISITWPLLFFEYEGNFIQKFQRELSTKWVLNTVSTGAHVLLGKILQNHMLDLRISNSKLFWRALAMLQRFSGQSKARCIESLLRAIHFPQPLSDDIRAAPISCHVQVAHEKEQVIPIALLSLLFRCSITEAQAHLAAAPSVCEAVRSALAGPGQKRTADPLEILEPDVQ
notes: glucokinase regulatory protein (GKRP), encoded by GCKR, human; also called GKRP; FLAG-GKRP; source: prepared as described previously [24], [35]
HTRF signal ratio (665 nm/615 nm) at 5 nM of both proteins, no S6P [7]: 1.87 | HTRF signal ratio (665 nm/615 nm) at 5.56 nM of both proteins [8]: 1.77
